In patent publication US20070298994A1, “Use of 3-Mercapto-3-Methyl-Hexan-1-Ol for Use as Malodour Standard” (SYMRISE GMBH & CO. KG, priority 2004, published 2007):

Test: Odour threshold value in air on a dynamic olfactometer
Details: for odour threshold value in air: dynamic olfactometer, mean of 24 measured values (8 trained assessors, three passes), refers to the pure substance
Method: The odour threshold values in air were determined for the substance (E)-3-methyl-2-hexenoic acid also occurring in sweat and 3-mercapto-3-methyl-hexan-1-ol recently found in sweat.
The odour threshold value denotes the concentration of an olfactorily perceptible substance in air at which this can be distinguished from the odourless ambient air.
Determination is carried out on a dynamic olfactometer. A sample of 20 μl each of dilute solutions of the components is placed in a container with 7 l air. The samples in the olfactometer are diluted clearly below the odour threshold by defined addition of odourless air. In the olfactometer, the concentrations in the sample air are increased little by little until all the assessors have characterised a perception. A group of 8 trained assessors determines the concentration of the samples to be distinguished in odour from air on three passes each so that the mean value of 24 measured values leads to the respective concentrations. The (E)-3-methyl-2-hexenoic acid is measured at 1% and the 3-mercapto-3-methyl-hexan-1-ol at 0.1% in odourless dipropylene glycol. The different dilutions were taken into account for calculating the threshold values. The threshold values refer to the pure substances. The threshold value of the (E)-3-methyl-2-hexenoic acid was determined at 15.1 ng/l air. The threshold value for the 3-mercapto-3-methyl-hexan-1-ol was determined at 0.015 ng/l air. All assessors evaluated the threshold value of 3-mercapto-3-methyl-hexan-1-ol lower than (E)-3-methyl-2-hexenoic acid in all passes.

Compound	odour threshold value in air	factor by which threshold value is lower than that of (E)-3-methyl-2-hexenoic acid (odour threshold values in air)
CCCC(C)(S)CCO (stereo not drawn) [3-mercapto-3-methyl-hexan-1-ol]	0.015 ng/l air	1000
CCC/C(C)=C/C(=O)O [(E)-3-methyl-2-hexenoic acid, reference compound]	15.1 ng/l air	–
